Values of other authors as cited in patent publication US20220313139A1, “APPARATUSES AND METHODS FOR IDENTIFICATION AND TREATMENT OF PATIENTS RESPONSIVE TO ANTIPSYCHOTIC AGENT THERAPY” (priority 2019, published 2022).

What was measured:
patients [1] = conditions: early phase II monotherapy trial
patients [2] = conditions: clinical studies, halted
[3] = in humans

oral absorption and bioavailability [3]	SMILES	dosage shown to be efficacious (patients [1])	efficacy versus placebo as determined with PANSS total scores (patients [2])
–	CSCC[C@H](N)C(=O)N[C@@]1(C(=O)O)CS(=O)(=O)[C@H]2[C@H](C(=O)O)[C@H]21 [poma, Pomaglumetad methionil]	40 mg BID	not significantly more efficacious than the placebo
low oral absorption and bioavailability	N[C@@]1(C(=O)O)CS(=O)(=O)[C@H]2[C@H](C(=O)O)[C@H]21 [pomaglumetad]	–	–
